Among the data in patent US20230250060A1 (IFM Due, Inc., priority 2022, published 2023) are EC50 values, retold here.

By EC50 is commonly meant the concentration giving half of the maximal effect.

The target in this assay is T1, STING (Homo sapiens, UniProt Q86WV6, G230A/H232R/R293Q/R71H).
T1 construct: host or cells: THP1-Dual KO-IFNAR2 cells
T1 sequence (Q86WV6 whole entry R71H/G230A/H232R/R293Q): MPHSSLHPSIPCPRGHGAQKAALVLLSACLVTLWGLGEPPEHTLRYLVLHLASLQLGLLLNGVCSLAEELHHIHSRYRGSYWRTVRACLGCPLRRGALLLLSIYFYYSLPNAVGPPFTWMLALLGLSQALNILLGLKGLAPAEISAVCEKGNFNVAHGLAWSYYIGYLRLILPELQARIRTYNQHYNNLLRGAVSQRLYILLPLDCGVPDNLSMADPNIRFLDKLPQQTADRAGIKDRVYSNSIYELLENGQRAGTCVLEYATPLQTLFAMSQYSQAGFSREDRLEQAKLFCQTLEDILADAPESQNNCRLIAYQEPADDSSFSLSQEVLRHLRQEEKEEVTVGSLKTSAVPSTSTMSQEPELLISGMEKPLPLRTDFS
The assay can be described thus: STING reporter assay (luciferase) in THP1-Dual KO-IFNAR2 cells stimulated with 2′3′cGAMP. The assay is classed as cell-based. Conditions: 2′3′cGAMP 15 μM final, 24 h, luciferase reporter activity, read-out: Pharmaron, THP1_IFNAR2 STING 24 h Luci Normalized: GeoMean EC50. Put shortly: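 THP1-Dual KO-IFNAR2 cells (2×10E6 cells/mL) exposed to compounds at 0.0017-100 μM final and stimulated with 2′3′cGAMP (15 μM final) delivered via Lipofectamine 2000. After 24 h at 37° C., secreted luciferase in supernatant read with QUANTI-Luc Plus; EC50 derived from luminescence.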
In general terms: Reporter assays use an easily measured gene product as a stand-in for the process of interest.
Take `O=C(Nc1c[nH]c2ccc(O[C@H]3C[C@H](c4ccc(C(F)(F)F)cc4)C3)cc12)c1ncccc1F` [Compound 231, 3-fluoro-N-{5-[(1R,3R)-3-[4-(trifluoromethyl)phenyl]cyclobutoxy]-1H-indol-3-yl}pyridine-2-carboxamide]: the EC50 is 40 to 200 nM. The value for `O=C(Nc1c[nH]c2ccc(O[C@H]3C[C@H](c4ccc(C(F)(F)F)cc4)C3)cc12)c1nccs1` [Compound 232, N-{5-[(1R,3R)-3-[4-(trifluoromethyl)phenyl]cyclobutoxy]-1H-indol-3-yl}-1,3-thiazole-2-carboxamide] was 40 to 200 nM; that for `Cc1oncc1C(=O)Nc1c[nH]c2ccc(O[C@H]3C[C@H](c4ccc(C(F)(F)F)cc4)C3)cc12` [Compound 233, 5-methyl-N-{5-[(1R,3R)-3-[4-(trifluoromethyl)phenyl]cyclobutoxy]-1H-indol-3-yl}-1,2-oxazole-4-carboxamide] was 5000 to 100000 nM. The value for `Cc1noc(C)c1C(=O)Nc1c[nH]c2ccc(O[C@H]3C[C@H](c4ccc(C(F)(F)F)cc4)C3)cc12` [Compound 234, 3,5-dimethyl-N-{5-[(1R,3R)-3-[4-(trifluoromethyl)phenyl]cyclobutoxy]-1H-indol-3-yl}-1,2-oxazole-4-carboxamide] was 200 to 1000 nM.

In the case of `O=C(Nc1c[nH]c2ccc(O[C@H]3C[C@H](c4ccc(C(F)(F)F)cc4)C3)cc12)c1cncs1` [Compound 235, N-{5-[(1R,3R)-3-[4-(trifluoromethyl)phenyl]cyclobutoxy]-1H-indol-3-yl}-1,3-thiazole-5-carboxamide], the half-maximal effective concentration (EC50) is 200 to 1000 nM. In the case of `O=C(Nc1c[nH]c2ccc(OCc3ccc(C(F)(F)F)cc3)cc12)C1CC12CCC2` (stereo not shown) [Compound 236, N-(5-{[4-(trifluoromethyl)phenyl]methoxy}-1H-indol-3-yl)spiro[2.3]hexane-1-carboxamide], the EC50 fell in the range of 40 to 200 nM. Take `Cn1nccc1C(=O)Nc1c[nH]c2ccc(O[C@H]3C[C@H](c4ccc(C(F)(F)F)cc4)C3)cc12` [Compound 237, 1-methyl-N-{5-[(1R,3R)-3-[4-(trifluoromethyl)phenyl]cyclobutoxy]-1H-indol-3-yl}-1H-pyrazole-5-carboxamide]: the EC50 fell in the range of 200 to 1000 nM.

As to `CC12CC(C(=O)Nc3c[nH]c4ccc(O[C@H]5C[C@H](c6ccc(C(F)(F)F)cc6)C5)cc34)(C1)C2` [Compound 238, 3-methyl-N-{5-[(1R,3R)-3-[4-(trifluoromethyl)phenyl]cyclobutoxy]-1H-indol-3-yl}bicyclo[1.1.1]pentane-1-carboxamide], the concentration for a half-maximal effect (EC50) was in the range of 40 to 200 nM. For `O=C(Nc1c[nH]c2ccc(O[C@H]3C[C@H](c4ccc(C(F)(F)F)cc4)C3)cc12)c1cscn1` [Compound 239, N-(5-((1R,3R)-3-(4-(trifluoromethyl)phenyl)cyclobutoxy)-1H-indol-3-yl)thiazole-4-carboxamide], the EC50 was 40 to 200 nM. The value for `Cn1cc(C(=O)Nc2c[nH]c3ccc(OCc4ccc(C(F)(F)F)cc4)cc23)nn1` [Compound 240, 1-methyl-N-(5-((4-(trifluoromethyl)benzyl)oxy)-1H-indol-3-yl)-1H-1,2,3-triazole-4-carboxamide] was 1000 to 5000 nM; that for `Cn1cc(C(=O)Nc2c[nH]c3ccc(O[C@H]4C[C@@H](c5ccc(C(F)(F)F)cc5)C4)cc23)nn1` [Compound 241] was 200 to 1000 nM; that for `Cn1cc(C(=O)Nc2c[nH]c3ccc(OCC[C@@H]4C[C@@H]5CN(CC(F)(F)F)C[C@@H]5C4)cc23)nn1` [Compound 242, N-(5-{2-[(3aR,5R,6aS)-2-(2,2,2-trifluoroethyl)octahydrocyclopenta[c]pyrrol-5-yl]ethoxy}-1H-indol-3-yl)-1-methyl-1H-1,2,3-triazole-4-carboxamide] was 200 to 1000 nM.

With `Cn1cc(C(=O)Nc2c[nH]c3ccc(CCOc4ccc(C(F)(F)F)cc4)cc23)nn1` [Compound 243, 1-methyl-N-(5-(2-(4-(trifluoromethyl)phenoxy)ethyl)-1H-indol-3-yl)-1H-1,2,3-triazole-4-carboxamide], the EC50 is 200 to 1000 nM. The value for `Cn1cc(C(=O)Nc2c[nH]c3ccc(OCCc4ccc(C(F)(F)F)cc4)cc23)nn1` [Compound 244, 1-methyl-N-(5-(4-(trifluoromethyl)phenethoxy)-1H-indol-3-yl)-1H-1,2,3-triazole-4-carboxamide] was 40 to 200 nM; that for `O=C(Nc1c[nH]c2ccc(OCCc3ccc(C(F)(F)F)cc3)cc12)c1cn(-c2cnc(N3CCC(F)(F)CC3)c(F)c2)nn1` [Compound 245, 1-(6-(4,4-difluoropiperidin-1-yl)-5-fluoropyridin-3-yl)-N-(5-(4-(trifluoromethyl)phenethoxy)-1H-indol-3-yl)-1H-1,2,3-triazole-4-carboxamide] was 200 to 1000 nM. With `O=C(Nc1c[nH]c2ccc(Oc3ccccc3)cc12)c1cnn(Cc2ccc(C(F)(F)F)cc2)c1` [Compound 246, N-(5-phenoxy-1H-indol-3-yl)-1-(4-(trifluoromethyl)benzyl)-1H-pyrazole-4-carboxamide] the figure was 40 to 200 nM.
